Data taken from patent US6410555B1, “Tetrahydronaphthyridinyl-carboxamides having anti-convulsant activity” (SmithKline Beecham p.l.c., priority 1998, dated 2002).

Tested on: maximal (tonic hindlimb extension) electroshock seizures in male rats
Experiment: Maximal electroshock seizure (MEST) threshold test, rat model
Type: in vivo
Conditions: 2 mg/kg p.o. at 2 h
Method: The maximal electroshock seizure (MEST) threshold test in rodents is particularly sensitive for detecting potential anti convulsant properties ^1. In this model anticonvulsant agents elevate the threshold to electrically-induced seizures whilst proconvulsants lower the seizure threshold. […] The threshold for maximal (tonic hindlimb extension) electroshock seizures in male rats (Sprague Dawley, 80-150 g 6 weeks old) was determined by a Hugo Sachs Electronik stimulator which delivered a constant current (0.3 sec duration; from 1-30 mA in steps of […]). The procedure is similar to that outlined above for mouse and full details are as published by Upton et al,.^4 The percentage increase or decrease in CC50 for each group compared to the control is calculated. […]

SMILES	percentage increase in CC50 compared to the control [%]
COc1ccc(C(=O)Nc2cnc3c(c2)CN(C)CC3(C)C)cc1C(F)(F)F.Cl [Example 3, N-(5,6,7,8-Tetrahydro-6,8,8-trimethyl[1,6]naphthyridin-3-yl)-4-methoxy-3-trifluoromethylbenzamide Hydrochloride]	314
CCOc1ccc(C(=O)Nc2cnc3c(c2)CN(C)CC3(C)C)cc1Br.Cl [Example 5, N-(5,6,7,8-Tetrahydro-6,8,8-trimethyl[1,6]naphthyridin-3-yl)-3-bromo-4-ethoxybenzamide Hydrochloride]	350
